Assay results as given in patent US20040006783A1, “Compositions and methods for modulating Rop GTPase activity in plants” (THE REGENTS THE UNIVERSITY OF CALIFORINIA, priority 2002, published 2004).
Where two headings read alike, the source gives them in different places.

Experiments:
[1] = tested on: GUS activity in ropgap4-1 seedlings; experiment: GUS specific activity in ropgap4-1 seedlings; assay type: in vivo, Arabidopsis thaliana
ADH = ADH specific activity in cell extracts of treated seedlings
H2O2 = conditions: seedlings treated with caffeine and DPI for 24 h
Description: Caffeine (5 mM) was incorporated into the medium of plates to which seedlings were transferred. […] Control seedlings were treated with 3% (v/v) DMSO or transferred to plates not containing caffeine.
H2O2 levels were measured using a modification of the Terashima (1998) method (Terashima et al., Physiol. Plant. 103:295-303 (1998)). Tissue (0.5 g) was homogenized under liquid nitrogen, hydrated in 3 ml of 5% (w/v) metaphosphoric acid and centrifuged at 1,500×g at 4° C. for 20 min. The pH of the supernatant was adjusted to pH 7 with 1M Tricine, 6M NaOH. H2O2 levels were measured in a 500-μl reaction containing 200 mM MOPS-KOH (pH 7.8), 50 mM NADH in 10 mM potassium phosphate (pH 7.8). Absorbance at 340 nm was measured, 0.5 U of Streptococcusfaecalis NADH peroxidase (Sigma) was added, the sample was incubated for 1 h and absorbance at 340 nm was re-measured. H2O2 levels were determined from the decrease in absorbance in 60 min using a standard curve generated from similarly processed H2O2 standards.

DN-rop2 seedlings = conditions: for Viable Seedlings 48 h after Treatment: DN-rop2, 30 μM DPI in 3% DMSO, mean ± SE
Excerpt: (§1) For oxygen deprivation, plates were transferred to an airtight chamber designed to allow entry and exit of 99.998% argon under 0.4 μmols/s^1m^2 per μÅ of light.

WT seedlings = conditions: for Viable Seedlings 48 h after Treatment: 30 μM DPI in 3% DMSO, mean ± SE
Excerpt: as §1

ropgap4-1 seedlings = conditions: for Viable Seedlings 48 h after Treatment: ropgap4-1, 30 μM DPI in 3% DMSO, mean ± SE
Excerpt: as §1

CA-rop2 seedlings = conditions: for Viable Seedlings 48 h after Treatment: CA-rop2, 30 μM DPI in 3% DMSO, mean ± SE
Excerpt: as §1

## Cn1c(=O)c2c(ncn2C)n(C)c1=O [Caffeine]
[1]; caffeine
  effect on GUS activity: rose
ADH; CA-rop2 seedlings
  caffeine promoted increase in ADH specific activity: limited
ADH; all four genotypes, non-stress conditions, caffeine 5 mM, 24 h
  induction of ADH specific activity: significantly higher levels than the maximal level observed in response to low oxygen
ADH; ropgap4-1 seedlings
  caffeine promoted increase in ADH specific activity: dramatic

## c1ccc2c(c1)[I+]c1ccccc1-2 [DPI, diphenylene iodonium chloride]
H2O2
  effect on caffeine-stimulated increase in H2O2: effectively blocked
[1]; DPI
  effect on rise of GUS activity in response to low oxygen and caffeine: blocked
DN-rop2 seedlings; 0 h oxygen deprivation
  Viable Seedlings 48 h after Treatment: 90 ± 3 Percentage
DN-rop2 seedlings; 6 h oxygen deprivation
  Viable Seedlings 48 h after Treatment: 70 ± 4 Percentage
DN-rop2 seedlings; 12 h oxygen deprivation
  Viable Seedlings 48 h after Treatment: 0 Percentage
DN-rop2 seedlings; 24 h oxygen deprivation
  Viable Seedlings 48 h after Treatment: 0 Percentage
DN-rop2 seedlings; DN-rop2 seedlings, in the presence of DPI
  effect on survival of oxygen deprivation: impaired
WT seedlings; 0 h oxygen deprivation
  Viable Seedlings 48 h after Treatment: 100 Percentage
WT seedlings; 6 h oxygen deprivation
  Viable Seedlings 48 h after Treatment: 80 ± 5 Percentage
WT seedlings; 12 h oxygen deprivation
  Viable Seedlings 48 h after Treatment: 0 Percentage
WT seedlings; 24 h oxygen deprivation
  Viable Seedlings 48 h after Treatment: 0 Percentage
WT seedlings; oxygen deprivation with DPI (over 36 h without DPI)
  duration of stress that WT seedlings survived: less than 12 h
ADH; all four genotypes, control and low oxygen conditions, 30 μM DPI
  effect on ADH activity: reduced ADH activity
ADH; ropgap4-1 seedlings, oxygen deprivation, DPI treatment
  effect on ADH induction: reduced ADH induction
ADH; seedlings treated with caffeine and DPI for 24 h
  effect on caffeine-stimulated increase in ADH specific activity: effectively blocked
ropgap4-1 seedlings; 0 h oxygen deprivation
  Viable Seedlings 48 h after Treatment: 100 Percentage
ropgap4-1 seedlings; 6 h oxygen deprivation
  Viable Seedlings 48 h after Treatment: 100 Percentage
ropgap4-1 seedlings; 12 h oxygen deprivation
  Viable Seedlings 48 h after Treatment: 50 ± 5 Percentage
ropgap4-1 seedlings; 24 h oxygen deprivation
  Viable Seedlings 48 h after Treatment: 0 Percentage
ropgap4-1 seedlings; ropgap4-1 seedlings, DPI treatment
  effect on survival of O2 deprivation: increased survival of O2 deprivation
CA-rop2 seedlings; 0 h oxygen deprivation
  Viable Seedlings 48 h after Treatment: 100 Percentage
CA-rop2 seedlings; 6 h oxygen deprivation
  Viable Seedlings 48 h after Treatment: 100 Percentage
CA-rop2 seedlings; 12 h oxygen deprivation
  Viable Seedlings 48 h after Treatment: 100 Percentage
CA-rop2 seedlings; 24 h oxygen deprivation
  Viable Seedlings 48 h after Treatment: 0 Percentage
CA-rop2 seedlings; CA-rop2 seedlings, in the presence of DPI
  effect on survival of oxygen deprivation: improved
